# Source: patent publication US20220400669A1, “COMPOUNDS AND METHODS FOR PROMOTING PLANT GROWTH” (King Abdullah University of Science and Technology, priority 2019, published 2022)
# Key:
# [1] = test system: Gigaspora margarita spores; test: Gigaspora margarita spores germination; assay type: in vivo; settings: 5 μM and 50 nM, 3 and 7 days
# Description: Spores were sterilized in a solution of Streptomycine sulphate (0.03% W/V) and Chloramine T (3% W/V) and germinated in 200 μl of MZ3 and MZ5 at 5 μM or 50 nM, GR24 10 nM or a solution of Water/Acetone (12.5 μl acetone in 25 ml water). For each treatments 96 sterilized spores were placed individually in the wells of a multi-well plate and treated with freshly prepared solutions at the beginning of the experiment and after 3 days. Spores were germinated in the dark at 30° C. and the germination rate was evaluated after 3 days and 7 days.
# [2] = test system: strigolactones (4-deoxyorobanchol, orobanchol) release; test: LC-MS/MS quantification of SLs in rice root exudates; assay type: in vivo; settings: 5 μM
# Description: For SL analysis, one-week-old seedlings were transferred into 50 ml falcon tubes (two seedlings per tube), containing half-strength Hoagland nutrient solution with K2HPO4.2H2O (+Pi), and grown in the biochamber for one week. Rice seedlings were then subjected to phosphate deficiency (−Pi) for another one week. On the day of root exudates collection, rice seedlings were first treated with 5 μM Zaxinone, or MZ compounds for 6 h, and then root exudates and root tissues were collected from each tube for LC-MS/MS analysis and Striga bioassays.
# For the quantification of SLs in rice root exudates, 50 ml of root exudates spiked with 0.672 ng of D6-5-deoxystrigol, was brought on a 500 mg/3 ml fast SPE C18 column preconditioned with 6 ml of methanol and 3 ml of water. After washing with 3 ml of water, SLs were eluted with 5 ml of acetone. The 4-deoxyorobanchol fraction (acetone-water solution) was concentrated to SL aqueous solution (˜500 μl), followed by the extraction with 1 ml of ethyl acetate. 750 μl of SLs enriched organic phase was then transferred to 1.5 ml tube and evaporated to dryness under vacuum. The dried extract was dissolved in 100 μl of acetonitrile:water (25:75, v:v) and filtered through a 0.22 µm filter for LC-MS/MS analysis.
# [3] = test system: Striga hermonthica; test: Striga hermonthica infection of rice in pots; assay type: in vivo; settings: 5 μM, rice cv IAC-165 in pots with Striga infested soil (FIG. 13)
# Description: Pots experiment was conducted and slightly adapted from the protocol as described previously About 20 mg (ca 8000) Striga seeds were thoroughly mixed in 1.5 L sand and soil mixture (1:1) and added in 3 L perforated plastic pot containing 0.5 L clean soil in the bottom. The pots were kept in greenhouse-controlled conditions at 35° C. under moisture to preconditioned Striga seeds for 10 days. On 11th day, one week old five rice seedlings (cv IAC165) were planted in each pot. After three days of rice planting, each pot was first irrigated with 250 ml phosphorus deficient Hoaglands nutrient solution and after four hours of irrigation 25 ml formulated MZ3, MZ5 and Zaxinone (100 μM) were sprayed. Next day, each pot was again supplied with 250 ml nutrient solution to make the final concentration of each compound to 5 μM and to move the compound to rice seedlings. Pots with and without Striga seeds were kept as the negative and positive control. Each compound was applied twice in a week up to four weeks. The rice plants were grown under normal growth condition (30° C., 70% RH) for eight weeks. The number of emerged Striga plants in each pot were counted.
# [4] = test system: wild-type rice plants; test: Rice phenotypes in soil (rhizotron system); assay type: in vivo; settings: 5 μM
# Description: For testing MZ3 and MZ5 on rice phenotypes in the rhizotron system (48 cm×24 cm×5 cm), three-day-old seedlings were grown in soil with half-strength modified Hoagland nutrient solution containing 0.4 mM K2HPO4.2H2O (+Pi) and 5 μM zaxinone for two weeks. The solution was changed every other day, adding the chemical at each renewal. To increase the compounds stability, 1 μl/ml emulsifier (cyclohexanone+Atlas […] kindly provided by a person […] of CRODA, Gouda; The Netherlands) was added into Hoagland nutrient solution. Root surface area was analyzed with the ImageJ software.
# [5] = Chemical stability in aqueous solution by HPLC; assay type: physicochemical; settings: 14-day HPLC analysis, room temperature (21±1° C.), pH 5.0-6.0 aqueous solution; compared with MZ5
# Description: MZ3, and MZ5 were tested for their chemical stability at 21±1° C. with pH 5.0-6.0 aqueous solution following the protocol described recently. 50 μl of each compound solutions (1 mg ml-1) was prepared with 175 μl ethanol and 750 μl Mili-Q water. Thereafter, 25 μl Indanol (1 mg ml-1, internal standard) was spiked in 975 μl previous prepared solution. The degradation was monitored at a time course by UPLC analysis using an Agilent HPLC ZORBAX Eclipse XDB-C18 column (3.5 μm, 4.6×150 mm), eluted first by 5% acetonitrile in water for 0.5 min then by a gradient flow from 5% to 100% acetonitrile within 18 min, and by 100% acetonitrile for 5 min. The column was operated at 40° C. at 0.35 ml min^−1 flow rate. Compounds eluted from the column were detected with a photodiode array detector, and the relative quantity of non-degraded amount was calculated by integration comparison with Indanol.
# Zaxinone was tested under the same conditions for comparison. Synthetic zaxinone was purchased (customized synthesis) from Buchem B.V. (Apeldoorn, The Netherlands).
compound,measurement,setting,value
"COc1ccc(Oc2cccc(/C=C/C(C)=O)c2)cc1 [MZ3, (E)-4-(3-(4-methoxyphenoxy)phenyl)but-3-en-2-one]",spore germination rate,[1],no effect
same,Oro content in root exudates,"[2]; Pi-starved WT rice, 6 hours, control 20",5 pgmg-1dry-root-weight
same,4DO content in root exudates,"[2]; Pi-starved WT rice, 6 hours, control 25",10 pgmg-1dry-root-weight
same,effect on 4-deoxyorobanchol relative to Zaxinone,"[2]; roots and root exudates, Pi-starved WT rice, 6 hours",significantly stronger
same,SL level of the root exudate,"[2]; wild-type rice seedlings, Pi-starvation, 6 h, compared with Zaxinone (FIGS. 19, 20A-20B)",obvious effect
same,SL content in zas mutant (high SL phenotype),"[2]; zas mutant rice roots and root exudates, Pi starvation (FIGS. 11A-11B)",strongly inhibited
same,reduction of the number of emerging Striga plants compared to the untreated control,[3],71%
same,root surface area and root numbers of WT plants compared with zaxinone treatment,[4],increased more
same,stability (relative amount of non-degraded compound),[5],much more stable
